Broadly, the IC50 is the concentration that inhibits the measured activity by half.

This assay has as its target 5HT3a receptor expressed in HEK-293T cells (Homo sapiens (Human), UniProt P46098). The assay can be described thus: Inhibition of Ca flux activity of 5HT3 in vitro assay. Format: cell-based. The settings on record: calcium flux, 5HT 216 nM, approximate values. On the procedure:
Inhibition of Ca Flux Activity of 5HT3 In Vitro Assay
The 5HT3 antagonist activity of the compounds of the invention was determined by measuring the ability of the compounds to inhibit the calcium flux activity of […] receptor expressed in HEK-293T cells. HEK-293T cells were transfected with the 5HT3a expression construct using Xtreme Gene 9 (Roche) in 150 mm tissue culture treated plates and incubated for 24 hours at 37° C. Cells were then split and plated at a density of 60K cells/well in poly-lysine coated, black 96-well plates with clear bottoms (BD BioSciences) and incubated overnight at 37° C. Growth media was removed and cells loaded with 200 uL calcium indicator dye in HBSS containing 20 mM HEPES (Calcium 5 Assay kit, Molecular Devices) and incubated at 37° C. for 1 hour. While cells were incubating, the 10× antagonist and agonist/antagonist addition plates were made. For 10× antagonist plate: half log serial dilutions (final concentrations range from 10^−7 through 10^−10 with the bottom well a negative, no ligand control) were made from test compounds in DMSO at a 1000× concentration and then diluted to 10× in HBSS/20 mM HEPES. For addition plate: 5HT was diluted to 100× in HBSS/20 mM HEPES (final concentration in the assay—216 nM) and 15 uL was added to each well of the addition plate, 15 uL of 10× compound was also added to the addition plate, and finally 120 uL of HBSS/20 mM HEPES (for a total of 150 uL). Cells were then removed from the incubator and equilibrated to room temperature for 10 minutes, then 22.5 uL of 10× test compounds were added in triplicate to the plates and incubated at room temperature for 10 minutes (Tropisetron was used as a positive control in every assay). Test plate and addition plate were loaded into the FlexStation III (Molecular Devices), and using the fluidics, 22.5 uL compound additions were made (at t=˜17 seconds), and fluorescence was measured for 90 seconds, reading every 2.2 seconds. Data sets were analyzed as max minus min using Software Max Pro (Molecular Devices). IC50 curves were generated using non-linear regression in GraphPad Prism.

A value given as a limit tells only on which side of the number the result lay.

Sequence of 5HT3a receptor expressed in HEK-293T cells (P46098 24-478): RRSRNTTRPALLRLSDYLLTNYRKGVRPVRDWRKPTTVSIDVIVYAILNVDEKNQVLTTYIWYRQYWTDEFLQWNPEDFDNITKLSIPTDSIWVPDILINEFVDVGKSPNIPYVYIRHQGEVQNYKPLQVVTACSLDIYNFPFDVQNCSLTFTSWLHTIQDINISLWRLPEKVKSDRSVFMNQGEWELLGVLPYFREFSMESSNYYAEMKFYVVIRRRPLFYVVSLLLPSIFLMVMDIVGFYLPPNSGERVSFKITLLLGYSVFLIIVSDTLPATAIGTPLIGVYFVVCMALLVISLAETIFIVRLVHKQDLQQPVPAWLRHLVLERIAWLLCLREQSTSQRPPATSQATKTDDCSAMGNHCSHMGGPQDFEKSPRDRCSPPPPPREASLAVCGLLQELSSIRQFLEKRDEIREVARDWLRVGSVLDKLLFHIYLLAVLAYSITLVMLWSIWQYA

For `O=C(O[C@H]1CC[N@@]2CCO[C@@H]1C2)c1cn(CC(F)F)c2ccc(F)cc12` [Example 91, (1S,5R,6S)-4-oxa-1-azabicyclo[3.3.1]nonan-6-yl 1-(2,2-difluoroethyl)-5-fluoro-1H-indole-3-carboxylate, 2,2,2-trifluoroacetate], the half-inhibitory concentration (IC50) was more than 1000 nM.
For the compound `CC(C)S(=O)(=O)n1cc(C(=O)NC2CC3COCC(C2)N3C)c2cc(F)ccc21` [Example 93, 5-fluoro-1-(isopropylsulfonyl)-N-((1R,5S,7S)-9-methyl-3-oxa-9-azabicyclo[3.3.1]nonan-7-yl)-1H-indole-3-carboxamide, 2,2,2-trifluoroacetate], the half-inhibitory concentration (IC50) came to 1.39 nM.
To `CN1[C@@H]2CC[C@H]1CC(OC(=O)c1cn(CC(F)(F)F)c3ccccc13)C2` (stereo partly drawn) [Example 95, (1R,3R,5S)-8-methyl-8-azabicyclo[3.2.1]octan-3-yl 1-(2,2,2-trifluoroethyl)-1H-indole-3-carboxylate, 2,2,2-trifluoroacetate] belongs 0.89 nM; to `CN1C2CCC1CC(OC(=O)c1cn([C@H]3CCOC3)c3ccccc13)C2` (stereo partly drawn) [Example 96, (1R,3R,5S)-8-methyl-8-azabicyclo[3.2.1]octan-3-yl 1-((S)-tetrahydrofuran-3-yl)-1H-indole-3-carboxylate, 2,2,2-trifluoroacetate], 0.83 nM.
To `CN1[C@@H]2CCC[C@H]1CC(NC(=O)c1cn(CC(F)F)c3ccc(F)cc13)C2` (stereo partly drawn) [Example 98, 1-(2,2-difluoroethyl)-5-fluoro-N-((1R,3R,5S)-9-methyl-9-azabicyclo[3.3.1]nonan-3-yl)-1H-indole-3-carboxamide, 2,2,2-trifluoroacetate] belongs 5.45 nM; to `CN1[C@@H]2COC[C@H]1CC(OC(=O)c1cn(S(C)(=O)=O)c3ccc(F)cc13)C2` (stereo partly drawn) [Example 99, (1R,5S,7S)-9-methyl-3-oxa-9-azabicyclo[3.3.1]nonan-7-yl 5-fluoro-1-(methylsulfonyl)-1H-indole-3-carboxylate, 2,2,2-trifluoroacetate], 0.29 nM; to `CN1[C@@H]2CCC[C@H]1CC(NC(=O)c1cn(S(C)(=O)=O)c3ccc(F)cc13)C2` (stereo partly drawn) [Example 100, 5-fluoro-N-((1R,3R,5S)-9-methyl-9-azabicyclo[3.3.1]nonan-3-yl)-1-(methylsulfonyl)-1H-indole-3-carboxamide, 2,2,2-trifluoroacetate], 12.8 nM.
In the case of `O=C(OC1CC2COCC(C1)N2)c1cn(CC(F)F)c2ncccc12` [Example 101, (1R,5S,7S)-3-oxa-9-azabicyclo[3.3.1]nonan-7-yl 1-(2,2-difluoroethyl)-1H-pyrrolo[2,3-b]pyridine-3-carboxylate, 2,2,2-trifluoroacetate], the IC50 is more than 1000 nM.
To `CN1C2CCC1CC(NC(=O)c1cn(CC(F)(F)F)c3ncccc13)C2` [Example 102, N-((1R,3R,5S)-8-methyl-8-azabicyclo[3.2.1]octan-3-yl)-1-(2,2,2-trifluoroethyl)-1H-pyrrolo[2,3-b]pyridine-3-carboxamide, 2,2,2-trifluoroacetate] belongs more than 1000 nM; to `CN1[C@@H]2CCC[C@H]1CC(OC(=O)c1cn(CC(F)(F)F)c3ncccc13)C2` (stereo partly drawn) [Example 103, (1R,3R,5S)-9-methyl-9-azabicyclo[3.3.1]nonan-3-yl 1-(2,2,2-trifluoroethyl)-1H-pyrrolo[2,3-b]pyridine-3-carboxylate, 2,2,2-trifluoroacetate], 8.2 nM; to `O=C(NC1CC2COCC(C1)N2C(F)(F)F)c1cn(CC(F)F)c2ncccc12` [Example 104, 1-(2,2-difluoroethyl)-N-((1R,5S,7S)-9-(trifluoromethyl)-3-oxa-9-azabicyclo[3.3.1]nonan-7-yl)-1H-pyrrolo[2,3-b]pyridine-3-carboxamide, 2,2,2-trifluoroacetate], more than 1000 nM.
To `O=C(NC1C[C@H]2COC[C@@H](C1)N2)c1cn(CC(F)(F)F)c2ncc(F)cc12` (stereo partly drawn) [Example 105, N-((1R,5S,7S)-3-oxa-9-azabicyclo[3.3.1]nonan-7-yl)-5-fluoro-1-(2,2,2-trifluoroethyl)-1H-pyrrolo[2,3-b]pyridine-3-carboxamide, 2,2,2-trifluoroacetate] belongs 34.1 nM.
To `CN1[C@@H]2COC[C@H]1CC(NC(=O)c1cn(-c3ncccn3)c3ccccc13)C2` (stereo partly drawn) [Example 107, N-((1R,5S,7S)-9-methyl-3-oxa-9-azabicyclo[3.3.1]nonan-7-yl)-1-(pyrimidin-2-yl)-1H-indole-3-carboxamide, 2,2,2-trifluoroacetate] belongs 1.1 nM.
For the compound `CN1[C@@H]2COC[C@H]1CC(NC(=O)c1cn(CC(C)(F)F)c3ncccc13)C2` (stereo partly drawn) [Example 108, 1-(2,2-difluoropropyl)-N-((1R,5S,7S)-9-methyl-3-oxa-9-azabicyclo[3.3.1]nonan-7-yl)-1H-pyrrolo[2,3-b]pyridine-3-carboxamide, 2,2,2-trifluoroacetate], the IC50 was 1.05 nM.
Under `CN1[C@@H]2COC[C@H]1CC(NC(=O)c1cn(CC(F)F)c3ncc(F)cc13)C2` (stereo partly drawn) [Example 109, 1(2,2-difluoroethyl)-5-fluoro-N-((1R,5S,7S)-9-methyl-d3-3-oxa-9-azabicyclo[3.3.1]nonan-7-yl)-1H-pyrrolo[2,3-b]pyridine-3-carboxamide] stands 1.11 nM; under `CC(C)S(=O)(=O)n1cc(C(=O)NC2C[C@H]3COC[C@@H](C2)N3C)c2ccccc21` (stereo partly drawn) [Example 111, N-((1R,5S,7S)-9-methyl-d3-3-oxa-9-azabicyclo[3.3.1]nonan-7-yl)-1-(isopropylsulfonyl)-1H-indole-3-carboxamide, 2,2,2-trifluoroacetate], 0.77 nM.
Under `CN1[C@@H]2COC[C@H]1CC(NC(=O)c1cn(CC(F)(F)F)c3ccc(F)cc13)C2` (stereo partly drawn) [Example 112, 1-(2,2,2-trifluoroethyl)-5-fluoro-N-((1R,5S,7S)-9-methyl-d3-3-oxa-9-azabicyclo[3.3.1]nonan-7-yl)-1H-indole-3-carboxamide, 2,2,2-trifluoroacetate] stands 0.53 nM.
Under `CN1[C@@H]2COC[C@H]1CC(NC(=O)c1cn(CC(F)F)c3ccc(F)cc13)C2` (stereo partly drawn) [Example 113, 1-(2,2-difluoroethyl)-5-fluoro-N-((1R,5S,7S)-9-methyl-d3-3-oxa-9-azabicyclo[3.3.1]nonan-7-yl)-1H-indole-3-carboxamide, 2,2,2-trifluoroacetate] stands 0.23 nM; under `O=C(N[C@@H]1CN2CCC1CC2)c1cn(CC(F)F)c2ncccc12` [Example 116, (S)-1-(2,2-difluoroethyl)-N-(quinuclidin-3-yl)-1H-pyrrolo[2,3-b]pyridine-3-carboxamide, 2,2,2-trifluoroacetate], more than 1000 nM.
Take `CN1[C@@H]2COC[C@H]1CC(NC(=O)c1cn(-c3cccnn3)c3ccccc13)C2` (stereo partly drawn) [Example 117, N-((1R,5S,7S)-9-methyl-3-oxa-9-azabicyclo[3.3.1]nonan-7-yl)-1-(pyridazin-3-yl)-1H-indole-3-carboxamide, 2,2,2-trifluoroacetate]: the IC50 was 0.39 nM.
As to `CN1C2COCC1CC(NC(=O)c1cn(-c3nccs3)c3ccccc13)C2` [Example 118, N-((1R,5S,7S)-9-methyl-3-oxa-9-azabicyclo[3.3.1]nonan-7-yl)-1-(thiazol-2-yl)-1H-indole-3-carboxamide, 2,2,2-trifluoroacetate], the IC50 is 0.86 nM.

Values taken from patent publication US9303045B2, “5-HT3 receptor antagonists” (Takeda Pharmaceutical Company Limited, priority 2013, dated 2016).
